One may read the melting point as the temperature of the solid-liquid transition.

`CC(=O)Nc1ccc(C(=S)NN)cc1` gave a melting point of 220 to 221 °C. As for `CCCCCc1nc(C(=O)OCC)c(C)[nH]1`, the figure is 89 to 90 °C; as for `COc1ccc(O[C@H](C)C(=O)O)c(C(=O)c2ccc(OCc3nc(-c4ccccc4)oc3C)cc2)c1`, 119 to 120 °C; as for `CCn1c(=O)c2c(nc(/C=C/c3ccc(OCc4ccccc4)cc3)n2C)n(CC)c1=O`, 185 °C. The result for `ON=C(c1ccccc1F)c1ccc(O)c(Cl)c1Cl` reads 168 to 175 °C; that for `CC(=O)c1cc2c(c(O)c1Cl)C(C)(C)CC2(C)C`, 78 to 80 °C. `CCOC(=O)c1cc2c(O)nncc2nc1N1CCCCC1` yielded a melting point of 178 to 179 °C. As for `COc1ccc(-c2ccc3[nH]c(=O)ccc3c2)cn1`, the figure is 248 to 252 °C; as for `Cc1cccc(-c2nccc(NN)n2)c1`, 102 to 103 °C. Turning to `Cc1cc(F)ccc1C(=Cc1nnnn1C)c1ccc(F)cc1C`, the melting point was in the range of 120 to 125 °C.

For the compound `COc1ccc(NS(=O)(=O)c2ccc([N+](=O)[O-])cc2)cc1`, the melting point lay within 173 to 175 °C. `CCCc1c(OCCCOc2ccc(C(=O)O)cc2F)ccc(C(C)=O)c1OC(C)=O` yielded a melting point of 144 to 145 °C. As for `CCc1c(C)[nH]c(=O)c(N)c1Cc1cc(C)cc(C)c1`, the figure is 204 to 205 °C; as for `CCCCc1oc2ccccc2c1C(O)c1ccc(O)cc1` (stereo unspecified), 94 to 96 °C.

As for `COc1cc(OC)cc(-c2oc3ncnc(Cl)c3c2-c2ccccc2)c1`, the melting point is 138 to 140 °C. As for `O=C(c1cccc(Br)c1)C(Br)C(Br)c1cc(Br)ccc1[N+](=O)[O-]` (stereo unspecified), the figure is 187 to 188 °C; as for `Cc1ccc(C(C)(C)C)c(SC2=C(O)CC(CCc3ccccc3)(CCC(C)C)OC2=O)c1` (stereo unspecified), 46 to 50 °C. The result for `CCNC(=O)/C=C/CSc1nc(N)cc(Cl)n1` reads 160 to 161 °C; that for `CSCN(C)C(=O)Nc1ccc(Cl)c(Cl)c1`, 103 °C; that for `O=C1CCC(N2Cc3cc(CNC(=O)Nc4ccc(SC(F)(F)F)cc4)ccc3C2=O)C(=O)N1` (stereo unspecified), 218 to 220 °C. The result for `Cc1ncccc1Oc1ccc(NC(=O)Nc2ccc3[nH]c4c(c3c2)CCN(C(=O)OC(C)(C)C)CC4)cn1` reads 173 to 175 °C; that for `O=C(O)c1cccc(-c2ccc(-c3ccc(C(F)(F)F)cc3)o2)c1`, 271 to 272 °C; that for `Cn1c(=O)c(=O)[nH]c2cc([N+](=O)[O-])ccc21`, 356 °C. Consider `COc1ccccc1N1CCN(CCC2C(=O)NCN3CCC4SC=C(C4=O)C(=O)C23)CC1` (stereo unspecified), for which the melting point was 162 to 164 °C. `CON=C(C#N)C1=CCCN(OC(=O)Nc2ccccc2)C1`: the melting point fell in the range of 128 to 130 °C. Take `Cc1ccc(Cl)c(Nc2ccccc2CON=CC(=O)O)c1Cl`: the melting point fell in the range of 185 to 187 °C.

`CCOC(=O)C(OCc1ccc(-c2ccc(Cl)cc2)cc1)(C(F)(F)F)C(F)(F)F` gave a melting point of 62 to 62.5 °C.

For the compound `COc1ccc2c(c1)C(=O)N(c1ccc3[nH]c(=O)ccc3c1)C2`, the melting point lay in the range of 305 to 310 °C. The result for `FC(F)(F)c1cc(CO[C@H]2CCCN(Cc3ncncn3)[C@H]2c2ccccc2)cc(C(F)(F)F)c1` reads 117 to 119 °C; that for `O=C(O)[C@H](Cc1cccc(OCC(F)(F)F)c1)[C@@H](O)c1ccc(F)cc1` (racemic), 142 to 143 °C; that for `COc1ccc(-c2c(C)[nH]c(=S)n2Nc2cccc(Cl)c2)cc1`, 226 °C. As for `O=Cc1ccc(OS(=O)(=O)C(F)(F)F)cc1Cl`, the figure is 125 to 127 °C. The result for `Cc1ccc2[nH]c(C)c(C(=O)c3ccc(Cl)c(S(N)(=O)=O)c3)c2c1` reads 248 to 250 °C; that for `Nc1ccccc1NC(=O)c1ccc(CNC(=O)c2[nH]c(-c3ccc(O)cc3)cc2-c2ccccc2)cc1`, 241 to 242 °C. Consider `CN1CCN(c2ccccc2-c2ccc(C#N)c(=O)[nH]2)CC1`, for which the melting point was in the range of 202 to 203 °C. As for `FC(F)Sc1nnc(-c2ccc(Cl)cc2)s1`, the figure is 74 to 76 °C.

The values above are taken from a melting point compilation (Tetko et al.; mined from patent text by program, amines drawn as free bases though some values may be those of a salt).
